Reference: paper PMC8469531, “Design, Synthesis, and Biochemical Evaluation of New Triazole Derivatives as Aurora-A Kinase Inhibitors” (Molecules, 2021)
Where two headings read alike, the source gives them in different places. Values belong to the compound of their own block, whether it stands above or below them.

Key:
Aurora-A kinase = biological target: T1, Aurora-A kinase (Homo sapiens, UniProt O14965); test: ChEF-based assay (PhosphoSens) of Aurora-A kinase activity
T1 sequence (O14965 1-403): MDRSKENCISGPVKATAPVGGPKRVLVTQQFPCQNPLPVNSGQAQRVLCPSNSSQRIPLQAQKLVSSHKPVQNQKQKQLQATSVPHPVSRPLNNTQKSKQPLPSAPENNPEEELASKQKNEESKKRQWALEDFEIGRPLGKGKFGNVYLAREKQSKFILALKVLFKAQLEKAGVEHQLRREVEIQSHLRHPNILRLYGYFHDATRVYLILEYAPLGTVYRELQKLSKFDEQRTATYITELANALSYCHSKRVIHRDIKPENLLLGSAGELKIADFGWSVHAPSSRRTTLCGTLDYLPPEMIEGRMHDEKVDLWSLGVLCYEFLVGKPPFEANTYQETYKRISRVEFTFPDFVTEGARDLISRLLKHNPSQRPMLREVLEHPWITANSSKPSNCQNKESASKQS
Experimental: The reaction wells were mixed, and the relative fluorescence unit (RFU) data were collected every 3 min for 30 min at 30 °C. The used λEx/Em of the chelated Mg^2+ with the Sox was 360/485 nm.

DLBC lymphoma cell lines = test system: DLBC lymphoma cell lines; design: method as in PMID 31850205; conditions: cited from earlier work
[1] = test system: various cancerous cell lines; design: method as in PMID 16204078; conditions: cited from earlier work
[2] = test system: A375 melanoma human tumor xenograft; design: method as in PMID 16204078; conditions: A375 melanoma human tumor xenograft model; cited from earlier work

Compound: Nc1nc(Nc2ccc(S(N)(=O)=O)cc2)nn1S(=O)(=O)c1ccccc1 [Compound 1a, 4-((5-amino-1-(phenylsulfonyl)-1H-1,2,4-triazol-3-yl)amino)benzenesulfonamide]
IC50 (Aurora-A kinase): 130 ± 60 nM
melting point: 229 to 231 °C

Compound: Nc1nc(Nc2ccc(S(N)(=O)=O)cc2)nn1C(=O)c1c(F)cccc1F [JNJ-7706621]
reversal of resistance to CD37-targeted radioimmunotherapy (DLBC lymphoma cell lines): promoted the reversal of resistance
growth inhibition of normal cells relative to cancerous cell lines ([1]; normal cell growth): several folds less potent at inhibiting normal cell growth
antiproliferative activity ([1]; various cancerous cell lines): potent antiproliferative activity
tumor size [2]: significantly reduced the tumor size

Compound: 4-((5-amino-1-((3,5-bis(trifluoromethyl)phenyl)sulfonyl)-1H-1,2,4-triazol-3-yl)amino)benzenesulfonamide [Compound 1d]
IC50 (Aurora-A kinase; Mean ± SEM of 3 independent experiments, 1.25 nM Aurora-A kinase, 15 µM ATP, 10 µM CSox-peptide substrate): 1780 ± 340 nM

More lines, now with the values ahead:

IC50 (Aurora-A kinase): 230 ± 20 nM
Compound: Cc1ccc(S(=O)(=O)n2nc(Nc3ccc(S(N)(=O)=O)cc3)nc2N)cc1 [Compound 1c, 4-((5-amino-1-tosyl-1H-1,2,4-triazol-3-yl)amino)benzenesulfonamide]

IC50 (Aurora-A kinase): 210 ± 20 nM
Compound: Nc1nc(Nc2ccc(S(N)(=O)=O)cc2)nn1S(=O)(=O)c1c(F)cccc1F [Compound 1b, 4-((5-amino-1-((2,6-difluorophenyl)sulfonyl)-1H-1,2,4-triazol-3-yl)amino)benzenesulfonamide]
